The record followed here is the supplement of paper PMC11923942.

Series [1] is described as follows: collision cross section (N2, base ion); higher = larger ion cross section. As for the experimental part:
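Standards of hydrophobic organic contaminants were analysed by GC-APCI (positive mode, dry or wet source conditions) coupled to cyclic ion mobility-QTOF MS. CCS was measured for the base ion (sometimes a fragment ion) in N2 drift gas (one-pass mode, calibrated with a Waters 22-compound mix).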

The nature of series [2]: GC retention time (DB-5MS, GC-APCI); higher = later elution. The method, then:
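Standards of hydrophobic organic contaminants were analysed by GC-APCI (positive mode, dry or wet source conditions) coupled to cyclic ion mobility-QTOF MS. CCS was measured for the base ion (sometimes a fragment ion) in N2 drift gas (one-pass mode, calibrated with a Waters 22-compound mix). 5 mL/min).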

In the case of `Brc1cc(Br)c(Oc2c(Br)cc(Br)c(Br)c2Br)cc1Br` [PBDE 183] (APCI source condition: Dry, base ion: M+.), the collision cross section in series [1] is 184.97 Å². Also, the GC retention time in series [2] worked out at 28.2 min.

In the case of `Brc1cc(Br)c(Oc2c(Br)cc(Br)c(Br)c2Br)c(Br)c1` [PBDE 184] (APCI source condition: Dry, base ion: M+.), the collision cross section in series [1] came out at 181.4 Å². For the same compound, in series [2], the GC retention time came out at 27.8 min.

Regarding `Brc1ccc(Br)c(Oc2c(Br)c(Br)c(Br)c(Br)c2Br)c1` [PBDE 185] (APCI source condition: Dry, base ion: M+.), the collision cross section in series [1] stood at 182.95 Å². Moreover, the GC retention time in series [2] was found to be 28.6 min.

In the case of `Brc1cc(Oc2c(Br)cc(Br)c(Br)c2Br)cc(Br)c1Br` [PBDE 191] (APCI source condition: Dry, base ion: M+.), the collision cross section in series [1] came to 187.91 Å². In series [2], the GC retention time amounted to 29 min.

For the compound `Clc1ccc(Cl)c(-c2c(Cl)ccc(Cl)c2Cl)c1Cl` [PCB136] (APCI source condition: Dry, base ion: M+.), in series [1], the collision cross section was 155.08 Å². The GC retention time in series [2] was 19.4 min.

As for `Clc1ccc(-c2ccccc2)cc1` [PCB 3] (APCI source condition: Dry, base ion: M+.), the collision cross section in series [1] was 137.62 Å². In series [2], this compound showed a GC retention time of 13.2 min.

On to `Clc1ccccc1-c1ccccc1Cl` [PCB 4] (APCI source condition: Dry, base ion: M+.), for which, in series [1], the collision cross section worked out at 137.64 Å². Also, the GC retention time in series [2] stood at 13.6 min.

The compound `Clc1ccc(-c2ccccc2Cl)cc1` [PCB 7] (APCI source condition: Dry, base ion: M+.) gave a collision cross section in series [1] of 137.98 Å². For the same compound, the GC retention time in series [2] was determined as 14.6 min.

`Clc1ccc(Cl)c(-c2ccccc2Cl)c1` [PCB 18] (APCI source condition: Dry, base ion: M+.) displayed a collision cross section in series [1] of 140.01 Å². The compound also showed a GC retention time in series [2] of 15.4 min.

For `Clc1cccc(-c2cccc(Cl)c2Cl)c1` [PCB 20] (APCI source condition: Dry, base ion: M+.), the collision cross section in series [1] was 140.68 Å². This compound gave a GC retention time in series [2] of 16.6 min.

`Clc1ccc(-c2ccc(Cl)cc2Cl)cc1` [PCB 28] (APCI source condition: Dry, base ion: M+.): the collision cross section in series [1] turned out to be 142.54 Å². In series [2], this compound yielded a GC retention time of 16.4 min.

On to `Clc1cccc(-c2cccc(Cl)c2Cl)c1Cl` [PCB 40] (APCI source condition: Dry, base ion: M+.), for which the collision cross section in series [1] is 144.96 Å². The GC retention time in series [2] turned out to be 17.9 min.

The compound `Clc1ccc(Cl)c(-c2cc(Cl)ccc2Cl)c1` [PCB 52] (APCI source condition: Dry, base ion: M+.) yielded a collision cross section in series [1] of 149.21 Å². In series [2], this compound gave a GC retention time of 17.1 min.

In the case of `Clc1ccc(Cl)c(-c2c(Cl)cccc2Cl)c1` [PCB 53] (APCI source condition: Dry, base ion: M+.), the collision cross section in series [1] was found to be 144.4 Å². Besides, the GC retention time in series [2] is 16.6 min.

The compound `Clc1cc(-c2ccccc2)c(Cl)c(Cl)c1Cl` [PCB 61] (APCI source condition: Dry, base ion: M+.) registered a collision cross section in series [1] of 148.05 Å². The GC retention time in series [2] worked out at 18.3 min.

In turn, `Clc1ccc(Cl)c(-c2cc(Cl)c(Cl)cc2Cl)c1` [PCB 101] (APCI source condition: Dry, base ion: M+.) had a collision cross section in series [1] of 155.45 Å². The compound further yielded a GC retention time in series [2] of 18.8 min.

`Clc1ccc(-c2c(Cl)ccc(Cl)c2Cl)cc1Cl` [PCB 110] (APCI source condition: Dry, base ion: M+.): in series [1], the collision cross section is recorded as 152.9 Å². Besides, the GC retention time in series [2] worked out at 19.4 min.

In the case of `Clc1ccc(-c2cc(Cl)c(Cl)cc2Cl)cc1Cl` [PCB 118] (APCI source condition: Dry, base ion: M+.), in series [1], the collision cross section was 156.06 Å². The same compound returned a GC retention time in series [2] of 19.9 min.

Compound `Clc1ccc(-c2ccc(Cl)c(Cl)c2Cl)c(Cl)c1Cl` [PCB 128] (APCI source condition: Dry, base ion: M+.) yielded a collision cross section in series [1] of 158.12 Å². In series [2], the GC retention time was determined as 21.3 min.

With `Clc1cc(Cl)c(-c2ccc(Cl)c(Cl)c2Cl)cc1Cl` [PCB 138] (APCI source condition: Dry, base ion: M+.), the collision cross section in series [1] worked out at 159.68 Å². This compound also showed a GC retention time in series [2] of 20.8 min.

With `Clc1cc(Cl)c(-c2c(Cl)ccc(Cl)c2Cl)cc1Cl` [PCB 149] (APCI source condition: Dry, base ion: M+.), in series [1], the collision cross section was determined as 158.29 Å². Besides, the GC retention time in series [2] is 19.8 min.

`Clc1cc(Cl)c(-c2cc(Cl)c(Cl)cc2Cl)cc1Cl` [PCB 153] (APCI source condition: Dry, base ion: M+.): the collision cross section in series [1] came out at 161.05 Å². The compound further returned a GC retention time in series [2] of 20.3 min.

On to `Clc1ccc(-c2cc(Cl)c(Cl)c(Cl)c2Cl)c(Cl)c1Cl` [PCB 170] (APCI source condition: Dry, base ion: M+.), for which, in series [1], the collision cross section turned out to be 165.18 Å². For the same compound, the GC retention time in series [2] came out at 22.5 min.

`Clc1cc(Cl)c(-c2cc(Cl)c(Cl)c(Cl)c2Cl)cc1Cl` [PCB 180] (APCI source condition: Dry, base ion: M+.): the collision cross section in series [1] stood at 166.55 Å². Further, the GC retention time in series [2] was 22 min.

`Clc1cc(Cl)c(-c2c(Cl)c(Cl)cc(Cl)c2Cl)cc1Cl` [PCB 187] (APCI source condition: Dry, base ion: M+.) gave a collision cross section in series [1] of 165.54 Å². This compound displayed a GC retention time in series [2] of 21.1 min.

Compound `Clc1ccc(Cl)c(-c2c(Cl)c(Cl)c(Cl)c(Cl)c2Cl)c1Cl` [PCB 200] (APCI source condition: Dry, base ion: M+.) returned a collision cross section in series [1] of 167.33 Å². The compound further came in with a GC retention time in series [2] of 22.2 min.

With `Brc1cc(Br)c(Br)c(Br)c1Br` [Pentabromobenzene] (APCI source condition: Dry, base ion: M+.), the collision cross section in series [1] amounted to 135.24 Å². This compound also came in with a GC retention time in series [2] of 18.5 min.

`Cc1c(Br)c(Br)c(Br)c(Br)c1Br` [Pentabromotoluene] (APCI source condition: Dry, base ion: M+.) came in with a collision cross section in series [1] of 140.29 Å². Also, in series [2], the GC retention time was found to be 20.1 min.

Take `Clc1cc(Cl)c(Cl)c(Cl)c1Cl` [Pentachlorobenzene] (APCI source condition: Dry, base ion: M+.): the collision cross section in series [1] is on record as 135.24 Å². In series [2], this compound had a GC retention time of 12.4 min.

`c1cc2cccc3c4cccc5cccc(c(c1)c23)c54` [Perylene] (APCI source condition: Dry, base ion: M+.) came in with a collision cross section in series [1] of 143.02 Å². In series [2], the GC retention time was found to be 25 min.

For `c1ccc2c(c1)ccc1ccccc12` [Phenanthrene] (APCI source condition: Dry, base ion: M+.), the collision cross section in series [1] was 137.89 Å². Moreover, in series [2], the GC retention time worked out at 15.6 min.

Consider `c1cc2ccc3cccc4ccc(c1)c2c34` [Pyrene] (APCI source condition: Dry, base ion: M+.), for which, in series [1], the collision cross section is given as 137.65 Å². The compound further came in with a GC retention time in series [2] of 18.9 min.

For `CCCCCCOP(=O)(OCCCCCC)OCCCCCC` [Trihexyl phosphate] (APCI source condition: Wet, base ion: [M+H]+), the collision cross section in series [1] is reported as 201 Å². The compound further came in with a GC retention time in series [2] of 19.4 min.

For the compound `O=P(Oc1ccccc1)(Oc1ccccc1)Oc1ccccc1` [Triphenylphosphate] (APCI source condition: Wet, base ion: [M+H]+), the collision cross section in series [1] came out at 168.91 Å². The GC retention time in series [2] came to 21.1 min.

For `O=P(OC(CCl)CCl)(OC(CCl)CCl)OC(CCl)CCl` [Tris(1,3-dichloropropan-2-yl) phosphate] (APCI source condition: Wet, base ion: [M+H]+), the collision cross section in series [1] is 175.08 Å². Further, the GC retention time in series [2] was determined as 20.4 min.

`CC(CCl)OP(=O)(OC(C)CCl)OC(C)CCl` (stereo not given) [Tris(1-chloro-2-propyl)phosphate] (APCI source condition: Wet, base ion: [M-C3H4Cl]+): the collision cross section in series [1] came out at 160.76 Å². In series [2], this compound had a GC retention time of 15.4 min.

On to `CCCCOCCOP(=O)(OCCOCCCC)OCCOCCCC` [Tris(2-butoxyethyl) phosphate] (APCI source condition: Wet, base ion: [M+H]+), for which, in series [1], the collision cross section worked out at 198.91 Å². The compound also came in with a GC retention time in series [2] of 21.1 min.

The compound `O=P(OCCCl)(OCCCl)OCCCl` [Tris(2-chloroethyl) phosphate] (APCI source condition: Wet, base ion: [M+H]+) had a collision cross section in series [1] of 145.65 Å². Further, the GC retention time in series [2] came to 15.1 min.

The compound `CCCCC(CC)COP(=O)(OCC(CC)CCCC)OCC(CC)CCCC` (stereo not given) [Tris(2-ethylhexyl) phosphate] (APCI source condition: Wet, base ion: [M+H]+) gave a collision cross section in series [1] of 221.61 Å². Further, the GC retention time in series [2] was found to be 21.5 min.

`O=S1OC[C@@H]2[C@H](CO1)[C@@]1(Cl)C(Cl)=C(Cl)[C@]2(Cl)C1(Cl)Cl` (stereo partly drawn) [α-Endosulfan] (APCI source condition: Wet, base ion: [M+H]+) came in with a collision cross section in series [1] of 163.16 Å². Moreover, in series [2], the GC retention time came to 18.9 min.
